The values that follow come from patent publication US20060156431A1, “L-gulose dependent vitamin C synthesis” (Vlaams Interuniversitair Instituut Voor Biotechnologie VZW, priority 2003, published 2006).

Where two headings read alike, the source gives them in different places.

Assay [1] has as its system A. thaliana cell suspensions. In words: In vivo labeling of A. thaliana cell suspensions with D-[U-14C]Man and L-AA determination. In kind it is cell-based, Arabidopsis thaliana. To be noted: pre-incubated 20 hours with 2.5 mM compound; for [^14C]-labeled L-AA / [^14C]-labeled L-AA (% of control): labeled two hours with D-[U-14C]Man; for Cold L-AA: acid extracts, HPLC. Here is the method: GDP-Man 3″,5″-epimerase assay and L-AA determination. The GDP-Man 3″,5″-epimerase activity and L-AA were measured by the HPLC method as described (13), with the exception that the concentration of methanol in solvent A was 0.5% and the flow rate was 0.8 ml/min.
In vivo labeling of A. thaliana cell suspensions with D-[U-14C]Man. In vivo labeling of A. thaliana cells was performed as described (13). Cell suspensions were pre-adapted to labeling conditions for 20 hours in the presence or absence of exogenous L-AA or its precursors (2.5 mM), followed by two hours labeling with 1 μCi of D-[U-14C]Man. L-AA was extracted with 5% metaphosphoric acid containing 2 mM DTT and 1 mM EDTA.

The target in assay [2] is T1, GDP-Man 3″,5″-epimerase of A. thaliana (Arabidopsis thaliana, UniProt Q93VR3).
T1 construct: The hydroxylapatite fraction of native epimerase (11) was used; endogenous in cells; host or cells: Arabidopsis thaliana ecotype Columbia cell suspensions; enzyme purified, hydroxylapatite fraction
T1 sequence (Q93VR3 1-377): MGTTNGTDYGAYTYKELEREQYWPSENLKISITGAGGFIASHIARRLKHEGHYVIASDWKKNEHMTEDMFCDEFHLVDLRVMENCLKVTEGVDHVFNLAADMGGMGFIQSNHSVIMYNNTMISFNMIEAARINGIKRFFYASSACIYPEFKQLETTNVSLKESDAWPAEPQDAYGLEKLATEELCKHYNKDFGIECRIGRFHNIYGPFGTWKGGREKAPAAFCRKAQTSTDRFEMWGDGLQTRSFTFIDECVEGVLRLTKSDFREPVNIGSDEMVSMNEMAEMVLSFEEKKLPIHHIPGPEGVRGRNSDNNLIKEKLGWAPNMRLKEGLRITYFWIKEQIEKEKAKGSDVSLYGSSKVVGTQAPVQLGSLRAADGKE
In words: GDP-Man 3″,5″-epimerase assay (HPLC). In kind it is biochemical. The conditions noted are these: for inhibition at 1000 µM: read-out: inhibition of the epimerase activity; for epimerase activity: purified epimerase, exogenously added dinucleotide.
Description: Characterization of GDP-Man 3″,5″-epimerase of A. thaliana. (A) Steady-state parameters of the native (purified from A. thaliana cell suspensions) and recombinant enzyme. The hydroxylapatite fraction of native epimerase (11) was used. The affinity-purified recombinant enzymes were used. […] Double reciprocal plots are shown and each line represents a fixed GDP concentration: 0 μM, circles; 2 μM, triangles; and 4 μM, squares. V0 is pmol of GDP-L-Gal/L-Gul produced per minute. GDP-Man concentrations were from 1.1 to 5.5 μM. Inset: Secondary plot of slopes versus GDP concentration was used to determine the Ki value for GDP. […] Incubations contained GDP-[^14C]Man (3.4 μM), increasing amounts of GDP-L-Fuc, and an aliquot of the hydroxylapatite fraction of epimerase. Kinetic measurements were performed in duplicates; standard deviation was equal or less than 5%.

Assay [3] has as its system Chlorella epimerase. To be noted: read-out: Km for the GDP-Man substrate; cited from earlier work.

For orientation: Ki means a dissociation constant, usually derived from enzyme kinetics or from competition with a known ligand. A higher Ki goes with a looser hold on the target. By inhibition is commonly meant the change of the read-out against control, counted positive when it falls. Usually Km stands for the concentration of substrate that gives half-maximal velocity. In general, IC50 refers to the point on the concentration scale where inhibition reaches its midpoint.

With `O=C1O[C@H]([C@@H](O)CO)[C@H](O)[C@@H]1O` [L-Gulono-1,4-lactone, L-gulono-1,4-lactone], in assay [1], the “Cold L-AA (% of control)” value was 165 % of control, the “[^14C]-labeled L-AA” value is given as 722 10^−3 × cpm/mg fw, the “[^14C]-labeled L-AA (% of control)” value is reported as 54 % of control and the “Cold L-AA” value amounted to 345 nmol/g fw.

In assay [2], `Nc1nc2c(ncn2[C@@H]2O[C@H](COP(=O)(O)OP(=O)(O)O)[C@@H](O)[C@H]2O)c(=O)[nH]1` [GDP] returned a Ki of 0.7 µM.

In the case of `O=C1O[C@H]([C@@H](O)CO)C(O)=C1O` [L-AA, L-ascorbic acid], in assay [2] (1 mM), the inhibition at 1000 µM is 15%. Besides, in assay [1], the “Cold L-AA (% of control)” value was 832 % of control, the “[^14C]-labeled L-AA” value is given as 448 10^−3 × cpm/mg fw, the “[^14C]-labeled L-AA (% of control)” value is 33 % of control and the “Cold L-AA” value was determined as 1764 nmol/g fw.

As for `NC(=O)C1=CN([C@@H]2O[C@H](COP(=O)(O)OP(=O)(O)OC[C@H]3O[C@@H](n4cnc5c(N)ncnc54)[C@H](O)[C@@H]3O)[C@@H](O)[C@H]2O)C=CC1` [NADH], the epimerase activity in assay [2] was 78 % of control.

On to “adenosine diphospho-D-glucose [ADP-D-Glc]”, for which the “effect on the enzyme activity” value in assay [2] (adenosine derivative) is listed as “no effect”.

Regarding `Nc1nc2c(ncn2[C@@H]2O[C@H](COP(=O)(O)OP(=O)(O)O[C@H]3O[C@H](CO)[C@@H](O)[C@H](O)[C@@H]3O)[C@@H](O)[C@H]2O)c(=O)[nH]1` [GDP-Man, GDP-D-mannose], the Michaelis-Menten constant (Km) in assay [2] (native epimerase, FIG. 1A, read-out: Km for the GDP-Man substrate) is 4.4 µM; in assay [3] it was 96 µM.

In assay [2], `C[C@@H]1O[C@H](OP(=O)(O)OP(=O)(O)OC[C@H]2O[C@@H](n3cnc4c(=O)[nH]c(N)nc43)[C@H](O)[C@@H]2O)[C@@H](O)[C@H](O)[C@@H]1O` [GDP-L-Fuc, Guanosine diphospho-L-fucose] registered an IC50 of 70 µM. In assay [2] (even at 1 mM concentration), the “type of inhibition of the epimerase” value was “partial inhibition”.

In the case of `O=C[C@@H](O)[C@H](O)[C@H](O)[C@@H](O)CO` [L-galactose], in assay [2] (1 mM), the “inhibition of the epimerase activity” value is on record as “no effect”. In assay [1], the “Cold L-AA (% of control)” value is given as 315 % of control, the “[^14C]-labeled L-AA” value is listed as 423 10^−3 × cpm/mg fw, the “[^14C]-labeled L-AA (% of control)” value was 32 % of control and the “Cold L-AA” value stood at 668 nmol/g fw.

As to `O=C1O[C@H]([C@H](O)CO)C(O)=C1O` [D-isoascorbic acid], the “inhibition of the epimerase activity” value in assay [2] (1 mM) is reported as “no effect”.

With `NC(=O)C1=CN([C@@H]2O[C@H](COP(=O)(O)OP(=O)(O)OC[C@H]3O[C@@H](n4cnc5c(N)ncnc54)[C@H](OP(=O)(O)O)[C@@H]3O)[C@@H](O)[C@H]2O)C=CC1` [NADPH], the epimerase activity in assay [2] was 88 % of control.

Turning to `O=C[C@@H](O)[C@@H](O)[C@H](O)[C@@H](O)CO` [L-Gulose, L-gulose], in assay [1], the “Cold L-AA (% of control)” value is recorded as 190 % of control, the “[^14C]-labeled L-AA” value is 872 10^−3 × cpm/mg fw, the “[^14C]-labeled L-AA (% of control)” value is 65 % of control and the “Cold L-AA” value was found to be 403 nmol/g fw.

With `O=C1O[C@H]([C@@H](O)CO)[C@@H](O)[C@@H]1O` [L-galactono-1,4-lactone], the inhibition at 1000 µM in assay [2] turned out to be 14%. In assay [1], the “Cold L-AA (% of control)” value was 170 % of control, the “[^14C]-labeled L-AA” value is reported as 790 10^−3 × cpm/mg fw, the “[^14C]-labeled L-AA (% of control)” value is 59 % of control and the “Cold L-AA” value was found to be 360 nmol/g fw.

`Nc1nc2c(ncn2[C@@H]2O[C@H](COP(=O)(O)OP(=O)(O)O[C@H]3O[C@H](CO)[C@@H](O)[C@H](O)[C@H]3O)[C@@H](O)[C@H]2O)c(=O)[nH]1` [GDP-Glc, guanosine diphospho-D-glucose] came in with an inhibitory constant (Ki) in assay [2] of 5 µM.

Turning to `NC(=O)c1ccc[n+]([C@@H]2O[C@H](COP(=O)([O-])OP(=O)(O)OC[C@H]3O[C@@H](n4cnc5c(N)ncnc54)[C@H](O)[C@@H]3O)[C@@H](O)[C@H]2O)c1` [NAD+], the epimerase activity in assay [2] is reported as 145 % of control.

For `NC(=O)c1ccc[n+]([C@@H]2O[C@H](COP(=O)([O-])OP(=O)(O)OC[C@H]3O[C@@H](n4cnc5c(N)ncnc54)[C@H](OP(=O)(O)O)[C@@H]3O)[C@@H](O)[C@H]2O)c1` [NADP+], the epimerase activity in assay [2] is recorded as 110 % of control.
